For the assay, the target named is T1, menin-MLL interaction (Homo sapiens, UniProt O00255).
T1 sequence (O00255 1-610): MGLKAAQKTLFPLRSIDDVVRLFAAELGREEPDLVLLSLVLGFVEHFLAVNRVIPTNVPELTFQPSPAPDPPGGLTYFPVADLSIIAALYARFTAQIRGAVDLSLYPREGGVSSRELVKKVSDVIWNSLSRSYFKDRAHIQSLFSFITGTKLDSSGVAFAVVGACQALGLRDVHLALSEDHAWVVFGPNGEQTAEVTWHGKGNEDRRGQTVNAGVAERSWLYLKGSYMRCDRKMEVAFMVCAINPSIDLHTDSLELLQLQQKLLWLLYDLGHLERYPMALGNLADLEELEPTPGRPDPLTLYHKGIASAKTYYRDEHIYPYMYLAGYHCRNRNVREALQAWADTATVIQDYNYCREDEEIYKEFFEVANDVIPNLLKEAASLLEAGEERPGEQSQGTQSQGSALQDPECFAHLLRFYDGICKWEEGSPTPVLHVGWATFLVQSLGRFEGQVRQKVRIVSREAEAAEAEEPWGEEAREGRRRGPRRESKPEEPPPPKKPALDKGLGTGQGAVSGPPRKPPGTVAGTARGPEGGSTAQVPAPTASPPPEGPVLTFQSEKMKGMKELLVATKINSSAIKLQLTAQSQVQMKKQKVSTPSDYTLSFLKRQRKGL
The experiment in a line: biochemical.

Molecules are shown by their SMILES.

Description: Compounds that inhibit the interaction decrease the fluorescence anisotropy which is being used as a read-out for compound screening and for IC50 determination.

By IC50 is commonly meant the concentration that gives 50% inhibition. Read a high IC50 as weaker potency. For the compound `CC1(C)CN=C(N2C[C@@H]3CC[C@H]2CN3c2ncnc3sc(CC(F)(F)F)cc23)S1` [Compound 2], the IC50 is < 100 nM.
For `N#Cc1ccc(CN2CCC(Nc3ncnc4sc(CC(F)(F)F)cc34)CC2)cc1` [Compound 144] the value was 500 to 2000 nM.
For `CNS(=O)(=O)Nc1ccc(CC(=O)N2CCN(c3ncnc4sc(CC(F)(F)F)cc34)CC2)cc1` [Compound 48] the value was < 100 nM.
Next, `N#Cc1cc2c(CO)c(CN3CCC(Nc4ncnc5sc(CC(F)(F)F)cc45)CC3)ccc2[nH]1` [Compound 290]: < 100 nM; `O=C(CCc1ccccc1)N1CCN(c2ncnc3sc(CC(F)(F)F)cc23)CC1` [Compound 88]: 500 to 2000 nM.
`NC(=O)c1cc2cc(CN3CCC(Nc4ncnc5sc(CC(F)(F)F)cc45)CC3)ccc2[nH]1` [Compound 232] came in with an IC50 of 100 to 500 nM.
Next, `COCCOC(CO)Cn1c(C#N)cc2cc(CN3CCC(Nc4ncnc5sc(CC(F)(F)F)cc45)CC3)ccc21` (stereo not drawn) [Compound 316]: < 100 nM.
Next, `N#Cc1cc2cc(CN3CCC(Nc4ncnc5sc(CC(F)(F)F)cc45)CC3)ccc2n1Cc1cc(OCCCCC2CC2)n[nH]1` [Compound 415]: 100 to 500 nM.
In turn, `O=C(Cc1ccc(CS(=O)(=O)C(F)(F)F)cc1)N1CCN(c2ncnc3sc(CC(F)(F)F)cc23)CC1` [Compound 79] came in with an IC50 of 100 to 500 nM.
`CC(C)c1cc2c(N3CCN(C4=NCC(C)(C)S4)CC3)ncnc2s1` [Compound 30] gave an IC50 of 500 to 2000 nM.
Next, `COc1ccccc1CC(=O)N1CCN(c2ncnc3sc(CC(F)(F)F)cc23)CC1` [Compound 94]: 500 to 2000 nM.
Regarding `N#Cc1cc2cc(CN3CCC(Nc4ncnc5sc(CC(F)(F)F)cc45)CC3)ccc2n1CC(N)=O` [Compound 189], the IC50 is < 100 nM.
Next, `Cc1c(CN2CCC(Nc3ncnc4sc(CC(F)(F)F)cc34)CC2)ccc2c1cc(C#N)n2CCN1CCS(=O)(=O)CC1` [Compound 368]: < 100 nM.
For `Cc1c(CN2CCC(Nc3ncnc4sc(CC(F)(F)F)cc34)CC2)ccc2c1cc(C#N)n2CCN1CCNC(C)C1` (stereo not drawn) [Compound 369] the value was < 100 nM.
Next, `CCCc1cc2c(N3CCN(c4nnc(C(F)(F)F)s4)CC3)ncnc2s1` [Compound 33]: 500 to 2000 nM; `OCc1cccc2c(CN3CCC(Nc4ncnc5sc(CC(F)(F)F)cc45)CC3)c[nH]c12` [Compound 242]: 100 to 500 nM; `CCCc1cc2c(NC3CCN(Cc4ccccc4Cl)CC3)ncnc2s1` [Compound 154]: 500 to 2000 nM.
For `Cc1c(CN2CCC(Nc3ncnc4sc(CC(F)(F)F)cc34)CC2)ccc2c1cc(C#N)n2Cc1c[nH]nn1` [Compound 311], the IC50 was < 100 nM.
Next, `Cc1c(CN2CCC(Nc3ncnc4sc(CC(F)(F)F)cc34)CC2)ccc2c1cc(C#N)n2CCN1CCSCC1` [Compound 360]: < 100 nM.
Turning to `NS(=O)(=O)Cc1ccc(CC(=O)N2C[C@@H]3CC[C@H]2CN3c2ncnc3sc(CC(F)(F)F)cc23)cc1` [Compound 97], the IC50 fell in the range of 500 to 2000 nM.
Next, `Cc1c(CN2CCC(Nc3ncnc4sc(CC(F)(F)F)cc34)CC2)ccc2c1cc(C#N)n2CCN1CCN(C(=O)CCC2CCCCC2)CC1` [Compound 339]: < 100 nM.
Next, `FC(F)(F)Cc1cc2c(NC3CCN(Cc4ccc(CN5CCCCC5)cc4)CC3)ncnc2s1` [Compound 116]: 100 to 500 nM; `N#Cc1[nH]c2ccc(CN3CCC(Nc4ncnc5sc(CC(F)(F)F)cc45)CC3)cc2c1F` [Compound 176]: < 100 nM.
Take `O[C@@H]1CN(Cc2ccccc2)CC[C@H]1Nc1ncnc2sc(CC(F)(F)F)cc12` (relative stereo) [Compound 165]: the IC50 is 100 to 500 nM.
For `Cc1nnc(Cn2c(C#N)cc3c(C)c(CN4CCC(Nc5ncnc6sc(CC(F)(F)F)cc56)CC4)ccc32)o1` [Compound 334] the value was < 100 nM; for `Cc1c(CN2CCC(Nc3ncnc4sc(CC(F)(F)F)cc34)CC2)ccc2c1cc(C#N)n2CC(O)(CO)CCC1CCCCC1` (stereo not drawn) [Compound 346], < 100 nM.
For `CCCC(c1ccc(CC(=O)N2CCN(c3ncnc4sc(CC(F)(F)F)cc34)CC2)cc1)S(C)(=O)=O` (stereo not drawn) [Compound 98] the value was 500 to 2000 nM; for `FC(F)(F)Cc1cc2c(N3CCN(c4nnc(CC5CCCCC5)s4)CC3)ncnc2s1` [Compound 39], 500 to 2000 nM.
For `Cc1c(CN2CCC(Nc3ncnc4sc(CC(F)(F)F)cc34)CC2)ccc2c1cc(C#N)n2CCN1CCOC(CO)C1` (stereo not drawn) [Compound 362] the value was < 100 nM; for `N#CCc1ccc2[nH]cc(CN3CCC(Nc4ncnc5sc(CC(F)(F)F)cc45)CC3)c2c1` [Compound 252], 500 to 2000 nM.
`O=C(Cc1ccc(NS(=O)(=O)CC(F)(F)F)cc1Cl)N1CCN(C2=NC=NC3SC(CC(F)(F)F)=CC23)CC1` (stereo not drawn) [Compound 287]: the IC50 lay in the range of 500 to 2000 nM.
`FC(F)(F)Cc1cc2c(NCC3CCN(Cc4ccc(N5CCOCC5)cc4Cl)CC3)ncnc2s1` [Compound 259] registered an IC50 of 100 to 500 nM.
Take `N#Cc1cc2cc(CN3CCC(Nc4ncnc5sc(CC(F)(F)F)cc45)CC3)ccc2n1CCN1CCNCC1` [Compound 393]: the IC50 is < 100 nM.
Next, `CS(=O)(=O)N(CC#N)c1ccc(C(F)(F)C(=O)N2CCN(c3ncnc4sc(CC(F)(F)F)cc34)CC2)cc1` [Compound 104]: 500 to 2000 nM; `Cc1c(CN2CCC(Nc3ncnc4sc(CC(F)(F)F)cc34)CC2)ccc2c1cc(C#N)n2CCN1CCNC(C(F)(F)F)C1` (stereo not drawn) [Compound 378]: < 100 nM.
For `FC(F)(F)Cc1cc2c(N[C@H]3CCN(Cc4ccccc4)C[C@@H]3NCCC3CCCC3)ncnc2s1` [Compound 171] the value was 100 to 500 nM; for `FC(F)(F)Cc1cc2c(NC3CCN(Cc4ccc[nH]4)CC3)ncnc2s1` [Compound 131], 100 to 500 nM.
Regarding `C=C(Br)Cn1c(C#N)cc2cc(CN3CCC(Nc4ncnc5sc(CC(F)(F)F)cc45)CC3)ccc21` [Compound 306], the IC50 is < 100 nM.
Next, `CCC(=O)N1CCN(CCCn2c(C#N)cc3cc(CN4CCC(Nc5ncnc6sc(CC(F)(F)F)cc56)CC4)ccc32)CC1` [Compound 396]: < 100 nM; `O=C(Cc1ccc(NS(=O)(=O)N2CCCCC2)cc1)N1CCN(c2ncnc3sc(CC(F)(F)F)cc23)CC1` [Compound 52]: < 100 nM.
For `N#Cc1cc2cc(CN3CCC(Nc4ncnc5sc(CC(F)(F)F)cc45)CC3)ccc2n1CS(N)(=O)=O` [Compound 210] the value was < 100 nM; for `Cc1ccc2[nH]c(C#N)cc2c1CN1CCC(Nc2ncnc3sc(CC(F)(F)F)cc23)CC1` [Compound 218], < 100 nM; for `Cc1c[nH]c(CCC(O)(CO)Cn2c(C#N)cc3c(C)c(CN4CCC(Nc5ncnc6sc(CC(F)(F)F)cc56)CC4)ccc32)n1` (stereo not drawn) [Compound 374], < 100 nM.
Take `Cc1c(CN2CCC(Nc3ncnc4sc(CC(F)(F)F)cc34)CC2)c(O)cc2c1cc(C#N)n2CCO` [Compound 387]: the IC50 was < 100 nM.
For `Cc1nnc(Cn2c(C#N)cc3c(C)c(CN4CCC(Nc5ncnc6sc(CC(F)(F)F)cc56)CC4)ccc32)s1` [Compound 322] the value was < 100 nM; for `N#Cc1cc2c(Br)c(CN3CCC(Nc4ncnc5sc(CC(F)(F)F)cc45)CC3)ccc2n1CC(N)=O` [Compound 307], < 100 nM.
Next, `CC(=O)NCCn1c(C#N)cc2cc(CN3CCC(Nc4ncnc5sc(CC(F)(F)F)cc45)CC3)ccc21` [Compound 208]: < 100 nM.
For `CCCCC(O)(CO)Cn1c(C#N)cc2c(C)c(CN3CCC(Nc4ncnc5sc(CC(F)(F)F)cc45)CC3)ccc21` (stereo not drawn) [Compound 338] the value was < 100 nM; for `FC(F)(F)CCc1nnc(N2CCN(c3ncnc4sc(CC(F)(F)F)cc34)CC2)s1` [Compound 18], 500 to 2000 nM.
As to `OCC(O)CN(c1ncnc2sc(CC(F)(F)F)cc12)C1CCN(Cc2ccccc2)CC1` (stereo not drawn) [Compound 128], the IC50 is 100 to 500 nM.
For `O=C(Cc1ccccc1O)N1CCN(c2ncnc3sc(CC(F)(F)F)cc23)CC1` [Compound 68] the value was 100 to 500 nM.
Next, `Cc1c(CN2CCC(Nc3ncnc4sc(CC(F)(F)F)cc34)CC2)ccc2c1cc(C#N)n2CC1CCC(=O)NC1` (stereo not drawn) [Compound 428]: < 100 nM.
In the case of `CCCCc1cc2c(N3CCN(c4nnc(C(F)(F)F)s4)CC3)ncnc2s1` [Compound 34], the IC50 was 500 to 2000 nM.
Next, `N#Cc1cc2cc(CN3CCC(N(CCN4CCOCC4)c4ncnc5sc(CC(F)(F)F)cc45)CC3)ccc2[nH]1` [Compound 238]: 100 to 500 nM.
For `Cc1nc(Cn2c(C#N)cc3cc(CN4CCC(Nc5ncnc6sc(CC(F)(F)F)cc56)CC4)ccc32)cs1` [Compound 201] the value was < 100 nM.
Next, `CN1CCN(S(=O)(=O)Nc2ccc(CC(=O)N3CCN(c4ncnc5sc(CC(F)(F)F)cc45)CC3)cc2)CC1` [Compound 55]: < 100 nM; `NCc1ccccc1CN1CCC(Nc2ncnc3sc(CC(F)(F)F)cc23)CC1` [Compound 121]: 100 to 500 nM; `CCCc1cc2c(NC3CCN(Cc4ccccc4)CC3)ccnc2s1` [Compound 282]: 500 to 2000 nM.
In the case of `CC(C)OC(CO)Cn1c(C#N)cc2cc(CN3CCC(Nc4ncnc5sc(CC(F)(F)F)cc45)CC3)ccc21` (stereo not drawn) [Compound 292], the IC50 was < 100 nM.
Next, `FC(F)(F)Cc1cc2c(NCC3CCN(Cc4ccc(Cl)cc4C(F)(F)F)CC3)ncnc2s1` [Compound 269]: 500 to 2000 nM.

Values taken from patent US9505781B2, “Compositions comprising thienopyrimidine and thienopyridine compounds and methods of use thereof” (The Regents of the University of Michigan, priority 2013, dated 2016).
